Experimental data taken from patent US20260256921A1, “BIFUNCTIONAL MOLECULES TO TARGET DEGRADATION OF TUMOR NECROSIS FACTOR” (Biohaven Therapeutics Ltd., priority 2023, published 2026).

How the values were obtained:
[1] = target: T1, Biotinylated Human TNF-α Protein (active trimer) (Homo sapiens, UniProt P01375); experiment: Octet (BLI) binding to TNF-α; conditions: 1:1 binding model, N.B. = No Binding
T1 construct: purchased ACROBiosystems TNA-H82E3
Protocol: Protocol. The binding to IL-17A was measured by Bio-Layer Interferometry (BLI) using the Sartorius Octet 96e platform (Goettingen, Germany). The binding assay was performed using Streptavidin (SA) Dip and Read Biosensors (Sartorius Catalog #18-5019; Goettingen, Germany) in OptiPlate-96F, Black, 96-well, Pinch bar design, plates (Perkin Elmer Catalog #6005270; Waltham, MA, USA) with the following steps: (1) 60 seconds of baseline; (2) 600 seconds of loading with 50 nM TNF-α (Biotinylated Human TNF-α Protein, His, Avitag (active trimer); ACROBiosystems Catalog #TNA-H82E3; Newark, DE, USA); (3) 60 seconds of baseline; (4) 120 seconds of quenching with 50 μg/ml of Biocytin (Thermo Fisher Catalog #B1592; Waltham, MA, USA); (5) 60 seconds of baseline; (6) 180 seconds of association with a dilution series of ligand consisting of seven concentrations. The eighth tip in the column was run in Assay Buffer (Phosphate Buffered Saline (PBS; Gibco Catalog #10010; Pottstown, PA, USA)+0.05% Tween 20 (v/v) (Fisher BioReagents Catalog BP337-500; Pittsburgh, PA, USA)+0.1% BSA (w/v) (Rockland Catalog #BSA-50; Pottstown, PA, USA)) to serve as a reference sensor, the signal of which was subtracted from the sample sensors. (7) 180 seconds of dissociation in Assay Buffer.
(§1) Results. Data analysis was done using the Octet Data Analysis HT software (Sartorius, Goettingen, Germany). Processed data was globally fit to a 1:1 binding model for determination of the equilibrium dissociation constant (KD).

[2] = target: T2, native human ASGPR protein (Homo sapiens, UniProt P07306); experiment: Octet (BLI) binding to ASGPR protein; conditions: 1:1 binding model
T2 sequence (P07306 1-291): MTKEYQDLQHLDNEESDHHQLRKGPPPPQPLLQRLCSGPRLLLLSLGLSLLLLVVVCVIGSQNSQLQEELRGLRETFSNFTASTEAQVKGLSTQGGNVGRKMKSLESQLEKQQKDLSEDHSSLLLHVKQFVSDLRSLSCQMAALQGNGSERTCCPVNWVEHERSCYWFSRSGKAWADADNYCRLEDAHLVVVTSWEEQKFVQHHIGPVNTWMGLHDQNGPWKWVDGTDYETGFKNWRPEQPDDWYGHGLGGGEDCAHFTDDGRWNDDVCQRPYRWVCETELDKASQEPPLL
Protocol: Protocol. The binding to native human ASGPR protein was measured by Bio-Layer Interferometry (BLI) using the Sartorius Octet 96e platform (Goettingen, Germany). The binding assay was performed using the Ni-NTA (NTA) Dip and Read Biosensors (Sartorius Catalog #18-5101; Goettingen, Germany) in OptiPlate-96F, Black, 96-well, Pinch bar design, plates (Perkin Elmer Catalog #6005270; Waltham, MA, USA) with the following steps: (1) 60 seconds of baseline in Assay Buffer (PBS (Gibco Catalog #10010; Pottstown, PA, USA)+0.05% Tween 20 (v/v) (Fisher BioReagents Catalog BP337-500; Pittsburgh, PA, USA)+0.1% BSA (w/v) (Rockland Catalog #BSA-50; Pottstown, PA, USA) +1 mM CaCl2; Sigma Catalog #21115; Burlington, MA, USA); (2) 600 seconds of loading with 100 nM ASGPR protein; (3) 60 seconds of baseline; (4) 180 seconds of association with a dilution series of ligand consisting of seven concentrations. The eighth tip in the column was run in Assay Buffer to serve as a reference sensor, the signal of which was subtracted from the sample sensors. (5) 180 seconds of dissociation in Assay Buffer.
as §1

human TNF-α = human TNF-α (Homo sapiens, UniProt P01375); experiment: TNF-α functional assay (hHEK-TNF-α SEAP reporter cells); format: cell-based; set-up: purchased ACROBiosystems TNA-H4211; conditions: hHEK-TNF-α cells, SEAP readout, TNF-α added at EC80 (1.034 pM), 18-24 hours; read-out: TNF-α Function IC50
Chain of human TNF-α (P01375 77-233 limits assumed): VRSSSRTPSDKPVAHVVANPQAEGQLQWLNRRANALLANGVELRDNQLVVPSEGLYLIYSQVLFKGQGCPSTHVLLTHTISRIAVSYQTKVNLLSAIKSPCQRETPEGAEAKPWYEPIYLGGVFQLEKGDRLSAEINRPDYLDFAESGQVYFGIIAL
Description: Human HEK TNF-αcells (hHEK-TNF-α cells; InvivoGen Catalog #hkb-tnfdmyd; San Diego, CA, USA) are human embryonic kidney HEK293 cells that are stably transfected with the reporter gene, secreted alkaline phosphatase (SEAP). The hHEK-TNF-α cells allow for the detection of bioactive human and murine TNF-α via the activation of the NF-kB-inducible promoter and subsequent production of SEAP. Bioactivity of commercial human TNF-α protein (ActiveMax® Human TNF-α Protein, Tag Free, Low Endotoxin; available by ACROBiosystems Catalog #TNA-H4211; Newark, DE, USA) was determined in this reporter system.
Test molecules were dissolved in 100% DMSO and serially diluted by either 3-fold serial dilution or 4-fold serial dilution. […] TNF-α protein was added at the previously determined ECso. Plates containing cells, test molecules, and cytokine were incubated overnight for 18-24 hours at 37° C., 5% CO2.
The level of SEAP in the supernatant of each well was quantified using the Quanti Blue™ Solution (InvivoGen Catalog #rep-qba2; San Diego, CA, USA), a reagent with a colorimetric change in the presence of SEAP. To perform the Quanti-Blue assay: 20 L of the sample supernatant after the overnight 18-24 hour incubation was added to 180 L of Quanti Blue™ Reagent and incubated for 45 minutes at 37° C. […] Inhibition of TNF-α signaling was calculated utilizing GraphPad Prism (San Diego, CA, USA).

T1 sequence (P01375 77-233 limits assumed): as above

| SMILES | Octet Kd TNF-α [1] | Kd [2] [nM] | IC50 (human TNF-α) [µM] | Octet Kd ASGPR [2] |
| --- | --- | --- | --- | --- |
| CCC(=O)NC1COC(COCCOCCOCCOCCn2cc(COCC(COCc3cn(CCOCCOCCOCCOCC4OCC(NC(=O)CC)C(O)C4O)nn3)(COCc3cn(CCOCCOCCOCCOCC4OCC(NC(=O)CC)C(O)C4O)nn3)NC(=O)CNC(=O)CCC(=O)N3CCN(Cc4ccc(-c5c[nH]c6ccncc56)c(OCCc5ccc(-c6cccc7ccncc67)cc5)c4)CC3)nn2)C(O)C1O (stereo not drawn) [Compound 104] | N.B. | 1 | 1 | – |
| CCC(=O)NC1COC(COCCOCCOCCOCCn2cc(COCCNC(=O)CNC(=O)CCOCCOCCOCCOCCOCCOCCC(=O)N3CCN(Cc4ccc(-c5c[nH]c6ccncc56)c(OCCc5ccc(-c6cccc7ccncc67)cc5)c4)CC3)nn2)C(O)C1O (stereo not drawn) [Compound 105] | N.B. | – | 0.334 | weak |
| CCC(=O)NC1COC(COCCOCCOCCOCCn2cc(COCC(COCc3cn(CCOCCOCCOCCOCC4OCC(NC(=O)CC)C(O)C4O)nn3)(COCc3cn(CCOCCOCCOCCOCC4OCC(NC(=O)CC)C(O)C4O)nn3)NC(=O)CNC(=O)CCOCCOCCC(=O)N3CCN(Cc4ccc(-c5c[nH]c6ccncc56)c(OCCc5ccc(-c6cccc7ccncc67)cc5)c4)CC3)nn2)C(O)C1O (stereo not drawn) [Compound 103] | N.B. | 2.13 | > 10000 | – |

More lines, now with the values ahead:

| Octet Kd TNF-α [1] | Kd [2] [nM] | IC50 (human TNF-α) [µM] | Octet Kd ASGPR [2] | SMILES |
| --- | --- | --- | --- | --- |
| N.B. | 963 | 0.319 | – | CCC(=O)N[C@H]1CO[C@H](COCCOCCOCCOCCn2cc(COCCNC(=O)CNC(=O)CCOCCOCCC(=O)N3CCN(Cc4ccc(-c5c[nH]c6ccncc56)c(OCCc5ccc(-c6cccc7ccncc67)cc5)c4)CC3)nn2)[C@H](O)[C@@H]1O [Compound 107] |
| N.B. | > 1000 | 0.356 | – | CCC(=O)N[C@H]1CO[C@H](COCCOCCOCCOCCn2cc(COCCNC(=O)CNC(=O)CCC(=O)N3CCN(Cc4ccc(-c5c[nH]c6ccncc56)c(OCCc5ccc(-c6cccc7ccncc67)cc5)c4)CC3)nn2)[C@H](O)[C@@H]1O [Compound 106] |
